Results from patent publication US11453841B2, “Functionalized branched alcohols as non-ionic sugar surfactants” (ExxonMobil Technology and Engineering Company, priority 2019, dated 2022).

Experiment: Surface tension isotherms
Assay type: physicochemical
Conditions: 22° C.
Experimental: Surface tension isotherms were measured for selected functionalized branched alcohols EXXAL™ 11-Glucose-3(EO )Linker (also referred to herein as “EXXAL™ 11-EO3-Glucoside”) and EXXAL™ 11-Galactose-3(EO)Linker, as well as comparative alkoxylated alcohol glycoside n-undecanol-glucose-3(EO)Linker (also referred to herein as “Undecanol-EO3-Glucoside”). The names, chemical structures, and weight average molecular weights of these functionalized branched alcohols are as follows:
Tables 7, 8 and 9 immediately below provide surface tension isotherms for the compounds 1, 2, and 3 measured at 22° C. Specifically, Table 7 provides surface tension data of n-undecanol-glucose-3(EO)Linker, Table 8 provides surface tension data of EXXAL™ 11-Gluscose-3(EO)Linker, and Table 9 provides surface tension data of EXXAL™ 11-Galactose-3(EO)Linker.

Surface Tension (γ) (Molarity 0.000125058 mol/L): 41.0 mN/m | Surface Tension (γ) (Molarity 0.000339945 mol/L): 34.5 mN/m | Surface Tension (γ) (Molarity 0.000924077 mol/L): 33.2 mN/m | Surface Tension (γ) (Molarity 0.001928806 mol/L): 33.1 mN/m | Surface Tension (γ) (Molarity 1.69248E−05 mol/L): 55.6 mN/m | Surface Tension (γ) (Molarity 2.29052E−06 mol/L): 66.4 mN/m | Surface Tension (γ) (Molarity 4.60064E−05 mol/L): 48.6 mN/m | Surface Tension (γ) (Molarity 6.22628E−06 mol/L): 61.5 mN/m | Surface Tension (γ) (Molarity 8.42635E−07 mol/L): 70.2 mN/m
SMILES: CCCCCCCCCCCOCCOCCOCCOC1OC(CO)C(O)C(O)C1O (stereo not drawn) [Compound 1, n-undecanol-glucose-3(EO)Linker]
